Measured values from the supplement of paper PMC10307832.

Columns and labels:
Assay in all cases: relative viability (nuclei count vs DMSO), 5 days (fraction); higher = more cells survive
NCI-H1944 = system: NCI-H1944
Procedure, shortened: (§1)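 Each reported value is a median over duplicate plates. It expresses relative viability: treated-well nuclei count divided by vehicle-well nuclei count. Lung cancer cell lines in 1536-well plates were dosed by pin tool a day after seeding, alone with one drug or with a fixed anchor-drug dose plus five library-drug doses (not always all listed) in √10 steps, and nuclei were counted after 5 days.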

NCI-H1651 = system: NCI-H1651
Procedure, shortened: as §1

NCI-H1395 = system: NCI-H1395
Procedure, shortened: as §1

EMC-BAC-2 = system: EMC-BAC-2
Procedure, shortened: as §1

EPLC-272H = system: EPLC-272H
Procedure, shortened: as §1

NCI-H520 = system: NCI-H520
Procedure, shortened: as §1

NCI-H838 = system: NCI-H838
Procedure, shortened: as §1

LU99A = system: LU99A
Procedure, shortened: as §1

NCI-H2087 = system: NCI-H2087
Procedure, shortened: as §1

ChaGo-K-1 = system: ChaGo-K-1
Procedure, shortened: as §1

HCC-827 = system: HCC-827
Procedure, shortened: as §1

NCI-H1793 = system: NCI-H1793
Procedure, shortened: as §1

HCC-44 = system: HCC-44
Procedure, shortened: as §1

NCI-H2405 = system: NCI-H2405
Procedure, shortened: as §1

NCI-H650 = system: NCI-H650
Procedure, shortened: as §1

NCI-H2023 = system: NCI-H2023
Procedure, shortened: as §1

LCLC-103H = system: LCLC-103H
Procedure, shortened: as §1

COR-L23 = system: COR-L23
Procedure, shortened: as §1

NCI-H2085 = system: NCI-H2085
Procedure, shortened: as §1

SK-MES-1 = system: SK-MES-1
Procedure, shortened: as §1

H3255 = system: H3255
Procedure, shortened: as §1

In the case of `CCN(CC)CCCCNc1ncc2cc(-c3cc(OC)cc(OC)c3)c(NC(=O)NC(C)(C)C)nc2n1` + CC(=O)c1c(C)c2cnc(Nc3ccc(N4CCNCC4)cn3)nc2n(C2CCCC2)c1=O [Palbociclib] (partner 0.5 µM), the relative viability (NCI-H1944; first compound 0.01 µM) is reported as 0.35, the relative viability (NCI-H1944; first compound 0.03162 µM) is reported as 0.345 and the relative viability (NCI-H1944; first compound 0.1 µM) is reported as 0.312. For the same compound, the relative viability (NCI-H1944; first compound 0.3162 µM) was 0.348, the relative viability (NCI-H1944; first compound 1 µM) was 0.278 and the relative viability (NCI-H1651; first compound 0.01 µM) was 0.539. For the same compound, the relative viability (NCI-H1651; first compound 0.03162 µM) was 0.511, the relative viability (NCI-H1651; first compound 0.1 µM) was 0.547 and the relative viability (NCI-H1651; first compound 0.3162 µM) was 0.541. The relative viability (NCI-H1651; first compound 1 µM) was 0.47, the relative viability (NCI-H1395; first compound 0.01 µM) was 0.637 and the relative viability (NCI-H1395; first compound 0.03162 µM) was 0.59. For the same compound, the relative viability (NCI-H1395; first compound 0.1 µM) was 0.661, the relative viability (NCI-H1395; first compound 0.3162 µM) was 0.546 and the relative viability (NCI-H1395; first compound 1 µM) was 0.448. The relative viability (EMC-BAC-2; first compound 0.03162 µM) was 0.501, the relative viability (EMC-BAC-2; first compound 0.1 µM) was 0.525 and the relative viability (EMC-BAC-2; first compound 0.3162 µM) was 0.536. The relative viability (EMC-BAC-2; first compound 1 µM) was 0.527, the relative viability (EPLC-272H; first compound 0.01 µM) was 0.286 and the relative viability (EPLC-272H; first compound 0.1 µM) was 0.33. It also gave a relative viability (EPLC-272H; first compound 0.3162 µM) of 0.284, a relative viability (EPLC-272H; first compound 1 µM) of 0.339 and a relative viability (NCI-H520; first compound 0.01 µM) of 0.22. It also gave a relative viability (NCI-H520; first compound 0.03162 µM) of 0.22, a relative viability (NCI-H520; first compound 0.1 µM) of 0.217 and a relative viability (NCI-H520; first compound 0.3162 µM) of 0.175. For the same compound, the relative viability (NCI-H520; first compound 1 µM) was 0.15, the relative viability (NCI-H838; first compound 0.01 µM) was 0.197 and the relative viability (NCI-H838; first compound 0.03162 µM) was 0.223. For the same compound, the relative viability (NCI-H838; first compound 0.1 µM) was 0.204, the relative viability (NCI-H838; first compound 0.3162 µM) was 0.213 and the relative viability (NCI-H838; first compound 1 µM) was 0.182. For the same compound, the relative viability (LU99A; first compound 0.01 µM) was 0.364, the relative viability (LU99A; first compound 0.03162 µM) was 0.393 and the relative viability (LU99A; first compound 0.1 µM) was 0.457. For the same compound, the relative viability (LU99A; first compound 0.3162 µM) was 0.446, the relative viability (LU99A; first compound 1 µM) was 0.338 and the relative viability (NCI-H2087; first compound 0.01 µM) was 0.154. It also gave a relative viability (NCI-H2087; first compound 0.03162 µM) of 0.219, a relative viability (NCI-H2087; first compound 0.1 µM) of 0.206 and a relative viability (NCI-H2087; first compound 0.3162 µM) of 0.234. The relative viability (NCI-H2087; first compound 1 µM) was 0.225, the relative viability (ChaGo-K-1; first compound 0.01 µM) was 0.98 and the relative viability (ChaGo-K-1; first compound 0.03162 µM) was 0.915. The relative viability (ChaGo-K-1; first compound 0.1 µM) was 1.08, the relative viability (ChaGo-K-1; first compound 0.3162 µM) was 0.997 and the relative viability (ChaGo-K-1; first compound 1 µM) was 0.823. It also gave a relative viability (HCC-827; first compound 0.01 µM) of 0.49, a relative viability (HCC-827; first compound 0.03162 µM) of 0.473 and a relative viability (HCC-827; first compound 0.1 µM) of 0.507. It also gave a relative viability (HCC-827; first compound 0.3162 µM) of 0.644, a relative viability (HCC-827; first compound 1 µM) of 0.454 and a relative viability (NCI-H1793; first compound 0.01 µM) of 0.288. It also gave a relative viability (NCI-H1793; first compound 0.03162 µM) of 0.295, a relative viability (NCI-H1793; first compound 0.1 µM) of 0.403 and a relative viability (NCI-H1793; first compound 0.3162 µM) of 0.277. It also gave a relative viability (NCI-H1793; first compound 1 µM) of 0.269, a relative viability (HCC-44; first compound 0.01 µM) of 1.02 and a relative viability (HCC-44; first compound 0.03162 µM) of 1.07. For the same compound, the relative viability (HCC-44; first compound 0.1 µM) was 0.987, the relative viability (HCC-44; first compound 0.3162 µM) was 1.04 and the relative viability (HCC-44; first compound 1 µM) was 1. It also gave a relative viability (NCI-H2405; first compound 0.01 µM) of 0.567, a relative viability (NCI-H2405; first compound 0.03162 µM) of 0.564 and a relative viability (NCI-H2405; first compound 0.1 µM) of 0.539. For the same compound, the relative viability (NCI-H2405; first compound 0.3162 µM) was 0.534, the relative viability (NCI-H2405; first compound 1 µM) was 0.52 and the relative viability (NCI-H650; first compound 0.01 µM) was 0.282. It also gave a relative viability (NCI-H650; first compound 0.03162 µM) of 0.369, a relative viability (NCI-H650; first compound 0.1 µM) of 0.331 and a relative viability (NCI-H650; first compound 0.3162 µM) of 0.308. For the same compound, the relative viability (NCI-H650; first compound 1 µM) was 0.32, the relative viability (NCI-H2023; first compound 0.01 µM) was 0.317 and the relative viability (NCI-H2023; first compound 0.03162 µM) was 0.32. It also gave a relative viability (NCI-H2023; first compound 0.1 µM) of 0.348, a relative viability (NCI-H2023; first compound 0.3162 µM) of 0.347 and a relative viability (NCI-H2023; first compound 1 µM) of 0.291. It also gave a relative viability (LCLC-103H; first compound 0.01 µM) of 0.473, a relative viability (LCLC-103H; first compound 0.03162 µM) of 0.423 and a relative viability (LCLC-103H; first compound 0.1 µM) of 0.457. The relative viability (LCLC-103H; first compound 0.3162 µM) was 0.48, the relative viability (LCLC-103H; first compound 1 µM) was 0.466 and the relative viability (COR-L23; first compound 0.01 µM) was 0.291. It also gave a relative viability (COR-L23; first compound 0.03162 µM) of 0.343, a relative viability (COR-L23; first compound 0.1 µM) of 0.341 and a relative viability (COR-L23; first compound 0.3162 µM) of 0.312. For the same compound, the relative viability (COR-L23; first compound 1 µM) was 0.248, the relative viability (NCI-H2085; first compound 0.01 µM) was 0.466 and the relative viability (NCI-H2085; first compound 0.03162 µM) was 0.45. The relative viability (NCI-H2085; first compound 0.1 µM) was 0.443, the relative viability (NCI-H2085; first compound 0.3162 µM) was 0.468 and the relative viability (NCI-H2085; first compound 1 µM) was 0.457. The relative viability (SK-MES-1; first compound 0.01 µM) was 0.394, the relative viability (SK-MES-1; first compound 0.03162 µM) was 0.345 and the relative viability (SK-MES-1; first compound 0.1 µM) was 0.32. It also gave a relative viability (SK-MES-1; first compound 0.3162 µM) of 0.268, a relative viability (SK-MES-1; first compound 1 µM) of 0.297 and a relative viability (H3255; first compound 0.01 µM) of 0.317. The relative viability (H3255; first compound 0.03162 µM) was 0.292, the relative viability (H3255; first compound 0.1 µM) was 0.388 and the relative viability (H3255; first compound 0.3162 µM) was 0.315. For the same compound, the relative viability (H3255; first compound 1 µM) was 0.317.
